Non-standard residues stand in square brackets, D forms with d. Residues, ends and D or L forms follow the SMILES beside them. No end group written: not given here. *: point of attachment. Fluorescein(5-Mal) = O=C1OC2(c3ccc(O)cc3Oc3cc(O)ccc32)c2ccc(N3C(=O)CC(*)C3=O)cc21; 5FAM = O=C1OC2(c3ccc(O)cc3Oc3cc(O)ccc32)c2ccc(C(=O)*)cc21; Nle = CCCC[C@H](N)C(=O)O
Experiments:
[1] = target: T1, BsGpsB1-68Tyr25Phe (Bacillus subtilis, UniProt P0CI74, Y25F); test: Fluorescence polarisation binding to BsGpsB1-68Tyr25Phe; settings: FP, BsGpsB Tyr25Phe relative to wild-type BsGpsB1-68
T1 construct: correspond to BsGpsB1-68^Asp31Ala and BsGpsB1-68^Tyr25Phe mutants, respectively; His6 (N, cleaved yes); made in house; host or cells: E. coli BL21(DE3)
Text: (§1) 75 the BsGpsB5-64:BsPBP11-17 complex.

[2] = target: T2, BsGpsB1-68Asp31Ala (Bacillus subtilis, UniProt P0CI74, D31A); test: Fluorescence polarisation binding to BsGpsB1-68Asp31Ala; settings: FP, BsGpsB Asp31Ala relative to wild-type BsGpsB1-68
T2 construct: Glu17Ala, Asp31Ala and Asp35Ala mutations were introduced to the BsGpsB1-68 expression construct plasmid; His6 (N, cleaved yes); made in house; host or cells: E. coli BL21(DE3)
Text: as §1

[3] = target: Fluorescein-LmPBPA11-20 wildtype (L. monocytogenes EGD-e); test: fluorescence polarisation
[4] = test system: LmGpsB; test: BACTH (bacterial two-hybrid) interaction with LmGpsB; format: cell-based, Listeria monocytogenes; settings: E. coli BTH101, 30 °C, photographed after 24 and 48 h; LmPBPA1 variants as T25-PBPA1ΔGT-TP
Text: The BACTH system[63] was used for analysis of protein:protein interactions. First, LmGpsB was screened against LmPBPA1 (lmo1892) variants to identify residues in LmPBPA1 that are important for binding LmGpsB. To facilitate screening, we used a T25 fragment of Bordetella pertussis adenylate cyclase that had been fused to the N-terminal 91 amino acids of LmPBPA1 to create a T25-LmPBPA1 fusion containing the N-terminal cytoplasmic mini-domain and the transmembrane helix, but lacking lacking the extracellular glycosyltransferase and transpeptidase domains (T25-PBPA1ΔGT-TP) in plasmid pSH437[21]. LmPBPA1 residues that corresponded to the BsGpsB binding motif of BsPBP1 (Thr7, Arg8, Tyr11, Arg12) and additional positively charged amino acids (Lys14, Lys20, Lys21, Lys22, Lys25, Arg26, Lys28 and Arg29) in T25-PBP A1ΔGT-TP were replaced with alanine prior to screening against GpsB-T18. The pSH437 plasmid was mutated by Quikchange mutagenesis using the primer pairs SHW744/SHW754 (T7A, pSH485), SHW746/SHW747 (R8A, pSH486), SHW755/SHW756 (Y11A, pSH487), SHW748/SHW749 (R12A, pSH488), SHW757/SHW758 (K14A, pSH489), SHW759/SHW760 (K20A, pSH490), SHW761/SHW762 (K21A, pSH491), SHW763/SHW764 (K22A, pSH492), SHW765/SHW766 (K25A, pSH493), SHW767/SHW768 (R26A, pSH494), SHW769/SHW770 (K28A, pSH495) and SHW771/SHW772 (R29A, pSH496).
pJR164 and pJR169 were constructed by cloning sepF (primers JR334/JR335 and XbaI/KpnI digestion) into pKT25 and p25-N, respectively. pJR165 and pJR170 were generated by cloning ezrA into pKT25 and p25-N, respectively, using primers JR339/JR340 and XbaI/KpnI for digestion. pJR172 and pJR174 were obtained by cloning zapA into pKT25 and p25-N, respectively, using primers JR337/JR338 and PstI/KpnI. pJR213 was constructed by amplification of divIB with primers JR353/JR354 and cloning into pKT25 using XbaI/KpnI. pJR214 was generated by PCR amplification of divIC with primers JR355/JR356 and cloning into pKT25 using XbaI/KpnI. mreBH was amplified by PCR using oligonucleotides JR368/JR369 and cloned into pKT25 and p25-N using XbaI/KpnI, resulting in pJR233 and pJR236, respectively. pJR242 and pJR243 were obtained by cloning mreC into pKT25 and p25-N, respectively, using primers JR364/JR365 and PstI/KpnI digestion. pbpA2 was cloned into pKT25 using oligonucleotides SHW153/SHW154 and XbaI/KpnI to create pJR250. pbpB1 was amplified with primers SHW157/SHW158 and cloned with SmaI/EcoRI into pKT25, yielding pSH236. pbpB2 was amplified with primers SHW155/SHW156 and cloned into pKT25 after PstI/BamHI digestion, yielding plasmid pSH235. pbpB3 was amplified using primers SHW159/160 and cloned by PstI/BamHI digestion into pKT25, resulting in pSH237. Finally, pSH484 was obtained by removing the N-terminal domain from gpsB present on plasmid pSH226 in a PCR with the primer pair SHW752/SHW753.
Plasmids encoding the respective genes fused to the N- or C-termini of the T18- or the T25-fragment of the Bordetella pertussis adenylate cyclase were co-transformed into E. coli BTH101. Transformants were selected on LB agar plates containing ampicillin (100 µg^−1mL^−1), kanamycin (50 µg^−1mL^−1), X-Gal (40 µg^−1mL^−1) and IPTG (0.1 mM) and photographs were taken after 24 and 48h growth at 30 °C. The BACTH experiments in Fig. 2b and Supplementary Figure 3C, D were repeated at least twice.

[5] = target: T3, BsGpsB1-68Lys32Glu (Bacillus subtilis, UniProt P0CI74, K32E); test: Fluorescence polarisation binding to BsGpsB1-68Lys32Glu; settings: FP, relative to wild-type LmPBPA1 peptide
T3 construct: His6 (N, cleaved yes); made in house; host or cells: E. coli BL21(DE3)
Text: as §1

[6] = target: full-length BsPBP1; test: SPR binding to immobilised full-length BsPBP1; design: species or system Bacillus subtilis; settings: SPR, PBP1-coated chip; full-length GpsB data fit 1:1 only over limited concentration range (avidity), BsGpsB1-68 supports 1:1; peer review file; read-out: affinity / Kd by SPR
Text: BsPBP1 and BsPBP1_17-914 were immobilised on the surface of a CM5 chip (GE Healthcare). For the BsPBP1/YrrSΔ13-16 titration 800 RUs of BsPBP1 were immobilised on the chip surface; for the BsPBP1/BsGpsB titration 1200 RUs of BsPBP1 were immobilised. YrrSΔ13-16, which lacks residues 13–16 in the cytoplasmic domain, was used in these experiments to minimise non-specific interactions with the chip matrix; binding of YrrSΔ13-16 to the reference surface was negligible and the deletion of residues 13–16 leaves the GpsB-binding motif intact. The YrrSΔ13-16 titration was carried out in single-cycle mode, without regenerating the surface between successive injections of protein, because harsh reagents were necessary for full surface regeneration.

[7] = target: T4, BsGpsB_(1-68) (B. subtilis, UniProt P0CI74 1-68); test: fluorescence polarisation; GpsB protein titrated into fluorescently labelled peptide; 10 mM Tris.HCl pH 8.0, 250 mM NaCl, 0.1% reduced Triton X-100; fit to a 1:1 interaction model; settings: both partners purified
T4 construct: GpsB, Bacillus subtilis, residues 1-68; also called N-terminal domain of BsGpsB; source: E. coli, purified (Ni-NTA, thrombin, size exclusion)
T4 sequence (looked up): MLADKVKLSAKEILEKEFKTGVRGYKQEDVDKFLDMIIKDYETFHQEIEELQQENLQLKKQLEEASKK

T3 sequence (P0CI74 1-68 K32E): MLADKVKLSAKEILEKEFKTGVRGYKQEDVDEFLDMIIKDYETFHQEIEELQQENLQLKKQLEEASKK
T2 sequence (P0CI74 1-68 D31A): as the sequence (P0CI74 1-68 K32E) above, with D31A, E32K counted along it
T1 sequence (P0CI74 1-68 Y25F): as the sequence (P0CI74 1-68 K32E) above, with Y25F, E32K counted along it

**Q.** How did the “reduction in affinity on GpsB mutation” value [1] turn out when `CCCC[C@H](NC(=O)c1ccc2c(c1)C(=O)OC21c2ccc(O)cc2Oc2cc(O)ccc21)C(=O)N[C@H](C(=O)N[C@@H](CC(N)=O)C(=O)N[C@@H](CCCC)C(=O)N[C@@H](CO)C(=O)N[C@@H](CCCNC(=N)N)C(=O)N[C@H](C(=O)N[C@@H](CCC(=O)O)C(=O)N[C@@H](CCCNC(=N)N)C(=O)N[C@@H](CCCNC(=N)N)C(=O)N[C@@H](CCCCN)C(=O)N[C@@H](C)C(=O)N[C@@H](CCC(N)=O)C(=O)N[C@@H](CC(N)=O)C(=O)N[C@@H](CC(C)C)C(=O)N[C@@H](Cc1ccc(O)cc1)C(=O)N[C@@H](CCC(=O)O)C(=O)N[C@@H](CC(=O)O)C(=O)N[C@@H](CCC(N)=O)C(=O)N[C@@H](CC(N)=O)C(=O)N[C@@H](C)C(=O)O)C(C)C)[C@@H](C)O` [Fluoroescein-BsYpbE1-21] (5FAM-[Nle]TN[Nle]SRVERRKAQNLYEDQNA-OH; N-terminus and C-terminus assumed) was run?
**A.** ~ 40 fold

**Q.** And the “reduction in affinity on GpsB mutation” value [2]?
**A.** ~ 40 fold

**Q.** For “LmGpsB1-73 (from UniProt Q8Y614 1-73) (domain or fragment)”, which Kd [3] is on record?
**A.** 200 µM

**Q.** `CSCC[C@H](NC(=O)[C@H](CO)NC(=O)CN)C(=O)N[C@@H](C)C(=O)N[C@@H](CC(=O)O)C(=O)N[C@@H](CCCCN)C(=O)N1CCC[C@H]1C(=O)N[C@@H](CCC(N)=O)C(=O)N[C@H](C(=O)N[C@@H](C)C(=O)N[C@@H](CO)C(=O)N[C@@H](CCC(N)=O)C(=O)N[C@@H](Cc1ccc(O)cc1)C(=O)N[C@@H](CCCNC(=N)N)C(=O)N[C@@H](CC(N)=O)C(=O)N[C@@H](CCCCN)C(=O)N[C@@H](CCC(N)=O)C(=O)N[C@@H](CO)C(=O)NCC(=O)NCC(=O)N[C@@H](CSC1CC(=O)N(c2ccc3c(c2)C(=O)OC32c3ccc(O)cc3Oc3cc(O)ccc32)C1=O)C(=O)N[C@@H](CCCCN)C(=O)O)[C@@H](C)O` (stereo partly drawn) [Fluorescein-LmPBPA11-20 Arg8Ala] (H-GSMADKPQTASQYRNKQSGGC(Fluorescein(5-Mal))K-OH; N-terminus and C-terminus assumed) was tested. Which “BACTH interaction with LmGpsB” value [4] did it give?
**A.** significant negative impact

**Q.** What about the “reduction in affinity for BsGpsB1-68Lys32Glu” value [5] of the same molecule?
**A.** > 15 fold

**Q.** `CSCC[C@H](NC(=O)[C@H](CO)NC(=O)CN)C(=O)N[C@@H](C)C(=O)N[C@@H](CC(=O)O)C(=O)N[C@@H](CCCCN)C(=O)N1CCC[C@H]1C(=O)N[C@@H](CCC(N)=O)C(=O)N[C@H](C(=O)N[C@@H](CCCNC(=N)N)C(=O)N[C@@H](CO)C(=O)N[C@@H](CCC(N)=O)C(=O)N[C@@H](Cc1ccc(O)cc1)C(=O)N[C@@H](C)C(=O)N[C@@H](CC(N)=O)C(=O)N[C@@H](CCCCN)C(=O)N[C@@H](CCC(N)=O)C(=O)N[C@@H](CO)C(=O)NCC(=O)NCC(=O)N[C@@H](CSC1CC(=O)N(c2ccc3c(c2)C(=O)OC32c3ccc(O)cc3Oc3cc(O)ccc32)C1=O)C(=O)N[C@@H](CCCCN)C(=O)O)[C@@H](C)O` (stereo partly drawn) [Fluorescein-LmPBPA11-20 Arg12Ala] (H-GSMADKPQTRSQYANKQSGGC(Fluorescein(5-Mal))K-OH; N-terminus and C-terminus assumed) was tested. Which “BACTH interaction with LmGpsB” value [4] did it give?
**A.** significant negative impact

**Q.** What about the “reduction in affinity for BsGpsB1-68Lys32Glu” value [5] of the same molecule?
**A.** ~ 4 fold

**Q.** What does the source list for `CSCC[C@H](NC(=O)[C@H](CO)NC(=O)CN)C(=O)NCC(=O)N[C@@H](CC(N)=O)C(=O)N[C@@H](CC(N)=O)C(=O)N[C@@H](CCC(N)=O)C(=O)N[C@@H](CO)C(=O)N[C@@H](CCCNC(=N)N)C(=O)N[C@@H](Cc1ccc(O)cc1)C(=O)N[C@@H](CCC(=O)O)C(=O)N[C@@H](CC(N)=O)C(=O)N[C@@H](CCCNC(=N)N)C(=O)N[C@@H](CC(=O)O)C(=O)N[C@@H](CCCCN)C(=O)N[C@@H](CCCNC(=N)N)C(=O)N[C@@H](CCCNC(=N)N)C(=O)N[C@@H](CCCCN)C(=O)N[C@@H](C)C(=O)N[C@@H](CC(N)=O)C(=O)N[C@@H](CSC1CC(=O)N(c2ccc3c(c2)C(=O)OC32c3ccc(O)cc3Oc3cc(O)ccc32)C1=O)C(=O)NCC(=O)O` (stereo partly drawn) [Fluoroescein-BsYrrS1-18] (H-GSMGNNQSRYENRDKRRKANC(Fluorescein(5-Mal))G-OH; N-terminus and C-terminus assumed)?
**A.** reduction in affinity on GpsB mutation [1]: 7 fold; reduction in affinity on GpsB mutation [2]: 7 fold

B1: BsGpsB1-68: N-terminal domain of B. subtilis GpsB (protein)
chain: MLADKVKLSAKEILEKEFKTGVRGYKQEDVDKFLDMIIKDYETFHQEIEELQQENLQLKKQLEEASKK
modifications: left off: His6, N-terminal, cleaved
notes: N-terminal domain of B. subtilis GpsB
**Q.** How did the Kd [6] turn out when B1 was run?
**A.** 40 µM

B2: BsPBP1_(1-32)^Arg28Ala, TAMRA-labelled at position 16 (peptide, UniProt P39793 1-32, looked up)
peptide: MSDQFNSREARRKANC(TAMRA‑maleimide)KSSPSPKKGKKAKKGG
notes: PBP1, Bacillus subtilis, residues 1-32; source: E. coli, His-tagged MBP fusion purified (Ni-NTA), labelled, TEV-cleaved, ultrafiltration
**Q.** Does B2 bind [7]?
**A.** binds

B3: BsYrrS_(1-18), fluorescein-labelled (peptide, UniProt O32031 1-18, looked up)
peptide: MSNNQSRYENRDKRRKAN
modifications: also: fluorescein label, position not given here
notes: YrrS, Bacillus subtilis, residues 1-18; also called entire cytoplasmic mini-domain of BsYrrS
**Q.** For B3, which Kd [7] is on record?
**A.** 430 µM

Reference: PMC6335420, “The cell cycle regulator GpsB functions as cytosolic adaptor for multiple cell wall enzymes” (Nature Communications, 2019)
